Assay results published in publication PMC6468028 (Protein & Cell, 2018).

B1: L-fucokinase/GDP-fucose pyrophosphorylase (FKP) from Bacteroides fragilis 9343, full-length wild type (enzyme, UniProt Q58T34 1-949, looked up)
chain: MQKLLSLPSNLVQSFHELERVNRTDWFCTSDPVGKKLGSGGGTSWLLEECYNEYSDGATFGEWLEKEKRILLHAGGQSRRLPGYAPSGKILTPVPVFRWERGQHLGQNLLSLQLPLYEKIMSLAPDKLHTLIASGDVYIRSEKPLQSIPEADVVCYGLWVDPSLATHHGVFASDRKHPEQLDFMLQKPSLAELESLSKTHLFLMDIGIWLLSDRAVEILMKRSHKESSEELKYYDLYSDFGLALGTHPRIEDEEVNTLSVAILPLPGGEFYHYGTSKELISSTLSVQNKVYDQRRIMHRKVKPNPAMFVQNAVVRIPLCAENADLWIENSHIGPKWKIASRHIITGVPENDWSLAVPAGVCVDVVPMGDKGFVARPYGLDDVFKGDLRDSKTTLTGIPFGEWMSKRGLSYTDLKGRTDDLQAVSVFPMVNSVEELGLVLRWMLSEPELEEGKNIWLRSEHFSADEISAGANLKRLYAQREEFRKGNWKALAVNHEKSVFYQLDLADAAEDFVRLGLDMPELLPEDALQMSRIHNRMLRARILKLDGKDYRPEEQAAFDLLRDGLLDGISNRKSTPKLDVYSDQIVWGRSPVRIDMAGGWTDTPPYSLYSGGNVVNLAIELNGQPPLQVYVKPCKDFHIVLRSIDMGAMEIVSTFDELQDYKKIGSPFSIPKAALSLAGFAPAFSAVSYASLEEQLKDFGAGIEVTLLAAIPAGSGLGTSSILASTVLGAINDFCGLAWDKNEICQRTLVLEQLLTTGGGWQDQYGGVLQGVKLLQTEAGFAQSPLVRWLPDHLFTHPEYKDCHLLYYTGITRTAKGILAEIVSSMFLNSSLHLNLLSEMKAHALDMNEAIQRGSFVEFGRLVGKTWEQNKALDSGTNPPAVEAIIDLIKDYTLGYKLPGAGGGGYLYMVAKDPQAAVRIRKILTENAPNPRARFVEMTLSDKGFQVSRS

Tests used:
[1] = biological target: T1, L-fucokinase/GDP-fucose pyrophosphorylase (FKP); BfFKP (Bacteroides fragilis, UniProt Q58T34); assay: NADH coupled assay of fucokinase activity; assay type: biochemical; conditions: co-substrate ATP; C-terminal fucokinase domain
T1 construct: full-length wild type, overexpressed and purified; about 105 kDa protomer, tetramer; model covers residues 71-398 and 467-949

[2] = biological target: the molecule itself; assay: SEC; purified FKP on size exclusion chromatography; eluted at the volume of the 440 kDa molecular weight marker

Row | Molecule | NADH coupled assay of fucokinase activity [1] | stoichiometry N [2]
1 | C[C@@H]1OC(O)[C@@H](O)[C@H](O)[C@@H]1O (stereo partly drawn) [L-fucose, 6-deoxy-L-galactose] | We applied the NADH coupled assay and the pyrophosphate assay to characterize the fucokinase activity | –
2 | B1 | – | 4
